Results reported in patent publication US12031152B2, “Nutrient media for the production of slaughter-free meat” (Upside Foods, Inc., priority 2020, dated 2024).
One block for each molecule: values may come before it.

Experiments:
[1] = ADI of trace elements and other components
Excerpt: (§1) Several trace elements are essential to cell metabolism and growth. […] As a novel alternative to formulating trace elements directly, the present disclosure discloses the identification and testing of food-safe complexes that innately contain trace elements.

[2] = cited from earlier work; for Safe Reference Level for Human Dietary Intake: UL: Tolerable Upper Limit
[3] = Safety assessment framework: risk categorization of media components
Experimental: A safety assessment was conducted on each component of a given cell culture media under the procedure outlined below. […] Further overview of the categorical framework for ensuring that culture media components are safe and suitable for their intended use in meat production are outlined below according to their category designation. A list of media components used during meat production along with worst-case exposure estimates and relevant authoritative limits or published toxicological/safety data supporting their use is presented in Table 16. • Category 1: These cell culture media components are food ingredients/additives that are GRAS or permitted by federal regulation without limitation on use. Exemplary compounds in this category include innocuous ingredients such as sugars, pH buffers, water soluble vitamins, and common antioxidants such as tocopherols. • Category 2. These cell culture media components are common dietary nutrients and are anticipated to have GRAS status for food use or be permitted by regulation for addition to food. Examples of such compounds include most of the inorganic salts and macronutrients that are present within the cell culture media. […] In some instances, consideration of established safe levels (e.g., ADI, UL) derived from a relevant authoritative body (e.g., U.S. FDA, EFSA, JECFA, FSANZ, U.S. EPA) may be leveraged to support safety. If comparisons of anticipated dietary intakes relative to an authoritative reference intake value is used, consideration of additive intakes from all dietary sources may be considered. In the absence of an authoritative reference intake value, published NOAELs from animal toxicology studies may be used to evaluate safety using standard scientific procedures for food safety evaluation. A margin of exposure (MoE) of 100-fold or greater between the NOAEL and estimated dietary intakes from food exposures is typically considered adequate to support safety. In situations where the MoE is <100-fold, additional measures for further reduction of the media component may be necessary, or further characterization of intraspecies/interspecies differences in metabolism may be necessary. These situations also require careful consideration of the regulatory status on a case-by-case basis (e.g., premarket approval as a food additive or GRAS evaluation required). • Category 3. […] For Category 3 substances a final consideration in the safety assessment process may involve hazard characterization of the potential for a substance to produce toxic biological effects outside of the endpoints measured in a sub-chronic rat toxicity study. […] Considerations for allergenicity, biological effects in humans (e.g., effects on blood pressure), and synergistic effects with other media components also may be evaluated. […]

[4] = Margin between estimated intake of a 65 kg adult and rat NOAEL; details: 65 kg adult
Experimental: A safety assessment was conducted on each component of a given cell culture media under the procedure outlined below. […] Further overview of the categorical framework for ensuring that culture media components are safe and suitable for their intended use in meat production are outlined below according to their category designation. A list of media components used during meat production along with worst-case exposure estimates and relevant authoritative limits or published toxicological/safety data supporting their use is presented in Table 16. • Category 1: These cell culture media components are food ingredients/additives that are GRAS or permitted by federal regulation without limitation on use. Exemplary compounds in this category include innocuous ingredients such as sugars, pH buffers, water soluble vitamins, and common antioxidants such as tocopherols. • Category 2. These cell culture media components are common dietary nutrients and are anticipated to have GRAS status for food use or be permitted by regulation for addition to food. Examples of such compounds include most of the inorganic salts and macronutrients that are present within the cell culture media. […] In some instances, consideration of established safe levels (e.g., ADI, UL) derived from a relevant authoritative body (e.g., U.S. FDA, EFSA, JECFA, FSANZ, U.S. EPA) may be leveraged to support safety. If comparisons of anticipated dietary intakes relative to an authoritative reference intake value is used, consideration of additive intakes from all dietary sources may be considered. […] For Category 3 substances a final consideration in the safety assessment process may involve hazard characterization of the potential for a substance to produce toxic biological effects outside of the endpoints measured in a sub-chronic rat toxicity study. […] Considerations for allergenicity, biological effects in humans (e.g., effects on blood pressure), and synergistic effects with other media components also may be evaluated. […]

[5] = Maximum (worst-case) dietary exposure estimate per 100 g serving; details: assumes complete transfer of media components to the finished product on a wt/wt basis
Experimental: The average daily intake (ADI) is conventionally determined as a result of a safety factor of 100-fold below the experimentally derived No Observable Adverse Effect Limits (NOAEL) for an appropriate animal species for sub-chronic or acute exposure. […] The ADI is determined in an appropriately sensitive species, usually rodent, and it is reported as mg of substance/kg of animal body weight/24-hour period. Calculating the maximum theoretical concentration of each media compound in the final product is done by assuming 100% incorporation of the compound from the media into the product.
A safety assessment was conducted on each component of a given cell culture media under the procedure outlined below.

Adherent Gallus cells = assay: Cellular response to cis recombinant Gallus FGF-2 vs commercial human recombinant FGF-2; type: cell-based; details: growth factor at 10 μg/L and 100 μg/L, five days
Experimental: Adherent Gallus cells were thawed and seeded at a density of 5000 cells/cm^2 in a T25-flask. One medium was prepared according to standard media hydration protocols. Dry powder media was added to DI water in a clean vessel and allowed to stir until all components were dissolved. The pH and osmolality of the medium were adjusted to 7.4 and 300 mOsm/kg respectively. The medium was then filtered using a 0.22 μm PES filtration unit and stored at 4° C. until use. Prior to use, the medium was allowed to come up to room temperature. Cells were seeded in the inner wells of a 96-well cell culture plate. Wells were either seeded with one of two different FGF-2 growth factors, a recombinant Gallus FGF-2 produced as described in Example 5, or a commercially available recombinant human FGF-2, or without any growth factors. Each growth factor was seeded at two different concentrations, 10 μg/L or 100 μg/L. Test conditions were all seeded in triplicate at a density of 5000 cells/cm^2. Cells were incubated at 39° C. in 5% CO2 in a Biotek BioSpa Live Cell Analysis System (BioSpa) for five days. Cells were imaged every 12 hours using the BioSpa. Images were processed using BioTeck Gen5 Data Analysis software. Data was then exported and analyzed using Microsoft Excel and SAS JMP.

cells [6] = assay: Screening of cobalt compounds to replace cobalt chloride; type: cell-based; details: replacement of cobalt chloride
Excerpt: Cobalt is an essential cofactor nutrient for many enzymatic pathways that contribute to metabolic and cellular function. Cobalt chloride is a commonly used source of cobalt in culture media. Cobalt chloride is strictly prohibited by the FDA for use in food. In order to find a suitable replacement, many cobalt compounds were screened. Eventually, Vitamin B12 in the form of cyanocobalamin, which contains bioavailable cobalt at its chiral center, was found. […] In some embodiments the method comprises removing cobalt chloride. In some embodiments the method comprises replacing cobalt chloride with cyanocobalamin (Vit B12).

cells [7] = details: FAC 0.5 mg/ml-50 mg/ml, up to 275 hours, vs cells without FAC
Excerpt: as §1

- ADI [1]: 5.14 mg/kg bw-day
Molecule: O=C(O)CCCCC1CCSS1 (racemic) [DL-ALPHA-LIPOIC ACID]

Molecule: CC(=O)Oc1c(C)c(C)c2c(c1C)CCC(C)(CCCC(C)CCCC(C)CCCC(C)C)O2 (racemic) [DL-ALPHA-TOCOPHEROL ACETATE]
- Safe Reference Level for Human Dietary Intake: UL [2]: UL = 1000 mg/d

Molecule: Cc1c(C)c2c(c(C)c1O)CC[C@@](C)(CCC[C@H](C)CCC[C@H](C)CCCC(C)C)O2 [D-ALPHA-TOCOPHEROL]
- Safe Reference Level for Human Dietary Intake: UL [2]: UL = 1000 mg/d

Molecule: N[C@@H](CCC(=O)[O-])C(=O)O.O.[Na+] [L-GLUTAMIC ACID MONOSODIUM H20]
- Risk Assessment Category [3]: 2

Molecule: O=S(=O)([O-])[O-].[Mg+2] [MAGNESIUM SULFATE (ANHY)]
- Safe Reference Level for Human Dietary Intake: UL (in words) ([2]; NS = not specified as no evidence of toxicity from excess intake known): No UL for food

Molecule: NCCO [MONOETHANOLAMINE]
- Intakes below NOAEL ([4]; rat NOAEL): kg adult are 128 fold

Molecule: Cl.Cl.NCCCCN [PUTRESCINE-2HCl]
- ADI [1]: 0.018 mg/kg bw-day

Molecule: [Cl-].[Rb+] [RUBIDIUM CHLORIDE]
- ADI [1]: 0.051 mg/kg bw-day

Molecule: O.O.[Na+].[Na+].[O]=[Mo](=[O])([O-])[O-] [SODIUM MOLYBDATE-2H2O]
- ADI [1]: 1.41 mg/kg bw-day

Molecule: O=P([O-])([O-])O.[Na+].[Na+] [SODIUM PHOSPHATE DIBASIC-ANHY]
- Risk Assessment Category [3]: 1
- Maximum Estimated Exposure per 100 g serving [5]: 4.3 g

Molecule: O.O.O.O.O.O.O=C([O-])CCC(=O)[O-].[Na+].[Na+] [SODIUM SUCCINATE-2Na 6H20]
- Intakes below NOAEL ([4]; NOAEL from 2 year rat study): are >1000 fold below

- ADI [1]: 1.87 mg/kg bw-day
Molecule: O.O.O.O.O.O.[Cl-].[Cl-].[Sr+2] [STRONTIUM CHLORIDE HEXAHYDRATE]

Molecule: O=C(O)CCC(=O)O [SUCCINIC ACID]
- Intakes below NOAEL ([4]; NOAEL from 2 year rat study): adult are 257-fold

- ADI [1]: 83.1 mg/kg bw-day
Molecule: Cc1cn([C@H]2C[C@H](O)[C@@H](CO)O2)c(=O)[nH]c1=O [THYMIDINE SYNTHETIC, THYMIDINE]

Molecule: CCCCCCCC/C=C\CCCCCCCC(=O)OCCOCC(OCCO)C1OCC(OCCO)C1OCCO (stereo not shown) [TWEEN 80]
- Safe Reference Level for Human Dietary Intake: ADI ([2]; Acceptable Daily Intake): ADI = 10 mg/kg bw/d

Molecule: C=C1CC[C@H](O)C/C1=C/C=C1\CCC[C@]2(C)[C@@H]([C@H](C)/C=C/[C@H](C)C(C)C)CC[C@@H]12 [VITAMIN D2 (ERGOCALCIFEROL), ERGOCALCIFEROL]
- Safe Reference Level for Human Dietary Intake: UL [2]: UL = 100 ug/d

Molecule: CALCIUM D-PANTOTHENATE
- Risk Assessment Category [3]: 1

Molecule: FERRIC CITRATE
- Risk Assessment Category [3]: 2

Molecule: commercial human FGF-2: commercially available recombinant human FGF-2 [reference compound]
- cellular response (Adherent Gallus cells): equivalent activity
- cellular response (Adherent Gallus cells; listed as human recombinant FGF-2): equivalent response

Molecule: cyanocobalamin [VITAMIN B12 (CYANCOCOBALAMIN)]
- supply of cobalt to promote cellular function (cells [6]): sufficiently supplied cobalt

Molecule: ferric ammonium citrate [FAC]
- cell viability over time (cells [7]): maintain high viability over time

B1: cis Gallus FGF-2: recombinant Gallus FGF-2 produced in E. coli as described in Example 5 (protein, UniProt P48800 13-158, looked up)
Fibroblast growth factor 2: PALPDDGGGGAFPPGHFKDPKRLYCKNGGFFLRINPDGRVDGVREKSDPHIKLQLQAEERGVVSIKGVSANRFLAMKEDGRLLALKCATEECFFFERLESNNYNTYRSRKYSDWYVALKRTGQYKPGPKTGPGQKAILFLPMSAKS
- cellular response (Adherent Gallus cells): equivalent activity
- cellular response (Adherent Gallus cells; listed as cis recombinant Gallus FGF-2): equivalent response
